Source: PubChem BioAssay AID256 (DTP/NCI, 2004)
Several values for one entry are separate records, joined by “and”; a condition that tells them apart may be missing. Equal values may be shown once. Toxic doses and inconclusive results are not listed. The calls were made as follows: active = survival T/C of 150% or more; inactive = T/C below 125% in these data.

Test system: CD2F1 mice, L1210 leukemia ip, survival T/C
Experiment: NCI In Vivo Anticancer Drug Screen. Data for tumor model L1210 Leukemia (intraperitoneal) in CD2F1 (CDF1) mice
Details: higher = longer survival
In short: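 Compound-dosed mice with transplantable tumor versus matched vehicle controls; endpoint ratio T/C reported.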

[1] = endpoint: mean survival time, dose: 100.0 mg/kg/injection, schedule: Q04DX003 (ip), vehicle: saline with Tween-80
[2] = endpoint: mean survival time, dose: 200.0 mg/kg/injection, schedule: Q04DX003 (ip), vehicle: saline with Tween-80
[3] = endpoint: mean survival time, dose: 400.0 mg/kg/injection, schedule: Q04DX003 (ip), vehicle: saline with Tween-80
[4] = endpoint: mean survival time, dose: 100.0 mg/kg/injection, schedule: Q04DX002 (ip), vehicle: saline with Tween-80
[5] = endpoint: mean survival time, dose: 200.0 mg/kg/injection, schedule: Q04DX002 (ip), vehicle: saline with Tween-80
[6] = endpoint: mean survival time, dose: 100.0 mg/kg/injection, schedule: Q01DX009 (ip), vehicle: saline with Tween-80
[7] = endpoint: mean survival time, dose: 200.0 mg/kg/injection, schedule: Q01DX009 (ip), vehicle: saline with Tween-80
[8] = endpoint: mean survival time, dose: 400.0 mg/kg/injection, schedule: Q01DX009 (ip), vehicle: saline with Tween-80
[9] = endpoint: mean survival time, dose: 50.0 mg/kg/injection, schedule: Q01DX009 (ip), vehicle: saline with Tween-80
[10] = endpoint: mean survival time, dose: 100.0 mg/kg/injection, schedule: Q01DX001 (ip), vehicle: saline with Tween-80
[11] = endpoint: mean survival time, dose: 200.0 mg/kg/injection, schedule: Q01DX001 (ip), vehicle: saline with Tween-80
[12] = endpoint: mean survival time, dose: 400.0 mg/kg/injection, schedule: Q01DX001 (ip), vehicle: saline with Tween-80
[13] = endpoint: mean survival time, dose: 100.0 mg/kg/injection, schedule: Q04DX003 (ip), vehicle: saline
[14] = endpoint: mean survival time, dose: 200.0 mg/kg/injection, schedule: Q04DX003 (ip), vehicle: saline
[15] = endpoint: mean survival time, dose: 400.0 mg/kg/injection, schedule: Q04DX003 (ip), vehicle: saline
[16] = endpoint: mean survival time, dose: 25.0 mg/kg/injection, schedule: Q01DX009 (ip), vehicle: saline with Tween-80
[17] = endpoint: mean survival time, dose: 25.0 mg/kg/injection, schedule: Q04DX003 (ip), vehicle: saline with Tween-80
[18] = endpoint: mean survival time, dose: 50.0 mg/kg/injection, schedule: Q04DX003 (ip), vehicle: saline with Tween-80

Measured: T/C

c1cc2c(cc1CNC1=NCCO1)OCO2
inactive: [1] 98 % of control | [2] 105 % of control | [3] 98 % of control

c1ccc2c(c1)Cn1c-2nc2ccccc21
inactive: [1] 97 % of control | [2] 97 % of control | [3] 94 % of control

O/N=C/C(O)(c1ccccc1)c1ccccc1
inactive: [4] 107 % of control | [5] 100 % of control

COc1ccc(C(O)c2ccccn2)cc1 (stereo unspecified)
inactive: [6] 103 % of control | [7] 97 % of control | [8] 90 % of control

CC1OCOC(C)C1C (stereo unspecified)
inactive: endpoint: mean survival time, dose: 50.0 mg/kg/injection, schedule: Q01DX005 (ip), vehicle: saline 108 % of control | [9] 91 % of control | endpoint: mean survival time, dose: 50.0 mg/kg/injection, schedule: Q04DX002 (ip), vehicle: saline + alcohol 103 % of control | endpoint: mean survival time, dose: 100.0 mg/kg/injection, schedule: Q01DX005 (ip), vehicle: saline 108 % of control | [6] 91 % of control | endpoint: mean survival time, dose: 100.0 mg/kg/injection, schedule: Q04DX002 (ip), vehicle: saline + alcohol 95 % of control | endpoint: mean survival time, dose: 200.0 mg/kg/injection, schedule: Q01DX005 (ip), vehicle: saline 108 % of control | [7] 91 % of control | endpoint: mean survival time, dose: 200.0 mg/kg/injection, schedule: Q04DX002 (ip), vehicle: saline + alcohol 88 % of control | endpoint: mean survival time, dose: 400.0 mg/kg/injection, schedule: Q01DX005 (ip), vehicle: saline 102 % of control | [8] 98 % of control | endpoint: mean survival time, dose: 400.0 mg/kg/injection, schedule: Q04DX002 (ip), vehicle: saline + alcohol 95 % of control

O=[As](O)(O)c1cccc2ccccc12
inactive: endpoint: mean survival time, dose: 1.25 mg/kg/injection, schedule: Q01DX009 (ip), vehicle: saline 90 % of control | endpoint: mean survival time, dose: 2.5 mg/kg/injection, schedule: Q01DX009 (ip), vehicle: saline 111 % of control

C=C1C(=O)O[C@@H]2C[C@@]3(C)CC(=O)C=C(C)[C@@H]3C[C@H]12
inactive: [10] 101 % of control | [6] 98 % of control | [11] 97 % of control | [7] 98 % of control | [12] 101 % of control | [8] 104 % of control

O=C1CCC(=O)N1O
inactive: endpoint: mean survival time, dose: 100.0 mg/kg/injection, schedule: Q01DX001 (ip), vehicle: saline 104 % of control | [13] 100 % of control | endpoint: mean survival time, dose: 200.0 mg/kg/injection, schedule: Q01DX001 (ip), vehicle: saline 103 % of control | [14] 102 % of control | endpoint: mean survival time, dose: 400.0 mg/kg/injection, schedule: Q01DX001 (ip), vehicle: saline 103 % of control | [15] 98 % of control

COc1nc(NC2OC(CO)C(O)C(O)C2O)c(Br)c(=O)n1C (stereo unspecified)
inactive: endpoint: median survival time, dose: 12.5 mg/kg/injection, schedule: Q01DX005 (ip), vehicle: saline with Tween-80 101 % of control | endpoint: median survival time, dose: 25.0 mg/kg/injection, schedule: Q01DX005 (ip), vehicle: saline with Tween-80 101 % of control | endpoint: median survival time, dose: 50.0 mg/kg/injection, schedule: Q01DX005 (ip), vehicle: saline with Tween-80 100 % of control | endpoint: median survival time, dose: 100.0 mg/kg/injection, schedule: Q01DX005 (ip), vehicle: saline with Tween-80 102 % of control | endpoint: median survival time, dose: 200.0 mg/kg/injection, schedule: Q01DX005 (ip), vehicle: saline with Tween-80 96 % of control

CCCC(C)C1(CC)NC(C)(C)CC(C)O1 (stereo unspecified)
inactive: [1] 103 % of control | [2] 87 % of control

O=C(O)CCc1[nH]c2ccccc2c1CC(=O)O
inactive: [4] 91 % of control | [5] 98 % of control | endpoint: mean survival time, dose: 400.0 mg/kg/injection, schedule: Q04DX002 (ip), vehicle: saline with Tween-80 119 % of control

CCC/C(=N\Nc1ccc([N+](=O)[O-])cc1[N+](=O)[O-])c1ccccc1
inactive: [16] 94 % of control | [17] 104 % of control | [9] 105 % of control | [18] 115 % of control | [6] 94 % of control | [1] 98 % of control

CC1COC(C(=O)O)(c2ccccc2)O1 (stereo unspecified)
inactive: endpoint: mean survival time, dose: 100.0 mg/kg/injection, schedule: Q04DX002 (ip), vehicle: saline 96 % of control | endpoint: mean survival time, dose: 200.0 mg/kg/injection, schedule: Q04DX002 (ip), vehicle: saline 108 % of control | endpoint: mean survival time, dose: 400.0 mg/kg/injection, schedule: Q04DX002 (ip), vehicle: saline 100 % of control

Cc1cc(NCCCCCCCCNc2cc(C)nc3cc(N(C)C)ccc23)c2ccc(N(C)C)cc2n1
inactive: endpoint: median survival time, dose: 1.57 mg/kg/injection, schedule: Q01DX009 (ip), vehicle: distilled water + Tween-80 + alcohol 108 % of control | endpoint: median survival time, dose: 3.12 mg/kg/injection, schedule: Q01DX009 (ip), vehicle: distilled water + Tween-80 + alcohol 118 % of control | endpoint: median survival time, dose: 3.12 mg/kg/injection, schedule: Q01DX009 (ip), vehicle: distilled water + Tween-80 115 % of control | endpoint: median survival time, dose: 6.25 mg/kg/injection, schedule: Q01DX009 (ip), vehicle: distilled water + Tween-80 123 % of control | endpoint: median survival time, dose: 12.5 mg/kg/injection, schedule: Q01DX009 (ip), vehicle: distilled water + Tween-80 123 % of control

O=C1NCCN1c1ccccc1[N+](=O)[O-]
inactive: endpoint: mean survival time, dose: 12.5 mg/kg/injection, schedule: Q01DX009 (ip), vehicle: other 96 % of control | endpoint: mean survival time, dose: 25.0 mg/kg/injection, schedule: Q01DX009 (ip), vehicle: other 91 % of control | endpoint: mean survival time, dose: 50.0 mg/kg/injection, schedule: Q01DX009 (ip), vehicle: other 96 % of control | endpoint: mean survival time, dose: 100.0 mg/kg/injection, schedule: Q01DX009 (ip), vehicle: other 108 % of control | endpoint: mean survival time, dose: 200.0 mg/kg/injection, schedule: Q01DX009 (ip), vehicle: other 101 % of control

CCCCCCCCCCCCSCCC(=O)O
inactive: [13] 98 % of control | [14] 98 % of control | [15] 97 % of control

NC1=CC(=O)C(c2ccccc2)C1=O (stereo unspecified)
inactive: [10] 100 % of control | [11] 92 % of control | [12] 92 % of control

O=C(CNC(=O)NCc1ccco1)NNC(=O)Nc1ccc(Cl)c([N+](=O)[O-])c1
inactive: [6] 94 % of control | [7] 87 % of control | [8] 91 % of control

N#CC(c1ccccc1)C1CCCCC1 (stereo unspecified)
inactive: endpoint: mean survival time, dose: 75.0 mg/kg/injection, schedule: Q01DX009 (ip), vehicle: saline 95 % of control | endpoint: mean survival time, dose: 150.0 mg/kg/injection, schedule: Q01DX009 (ip), vehicle: saline 106 % of control | endpoint: mean survival time, dose: 300.0 mg/kg/injection, schedule: Q01DX009 (ip), vehicle: saline 108 % of control

O=S(=O)(F)c1ccc(O)cc1
inactive: endpoint: mean survival time, dose: 25.0 mg/kg/injection, schedule: Q01DX009 (ip), vehicle: saline + alcohol 93 % of control | [17] 93 % of control | endpoint: mean survival time, dose: 50.0 mg/kg/injection, schedule: Q01DX001 (ip), vehicle: saline with Tween-80 96 % of control | endpoint: mean survival time, dose: 50.0 mg/kg/injection, schedule: Q01DX009 (ip), vehicle: saline + alcohol 95 % of control and 100 % of control | [18] 93 % of control | [10] 95 % of control | endpoint: mean survival time, dose: 100.0 mg/kg/injection, schedule: Q01DX009 (ip), vehicle: saline + alcohol 93 % of control and 95 % of control | [4] 103 % of control and 107 % of control | [1] 101 % of control

O=Cc1cccc2ccc3ccccc3c12
inactive: endpoint: median survival time, dose: 50.0 mg/kg/injection, schedule: Q04DX002 (ip), vehicle: saline with Tween-80 111 % of control | endpoint: median survival time, dose: 100.0 mg/kg/injection, schedule: Q04DX002 (ip), vehicle: saline with Tween-80 100 % of control | endpoint: median survival time, dose: 200.0 mg/kg/injection, schedule: Q04DX002 (ip), vehicle: saline with Tween-80 111 % of control

CC1=C/C(=N\N=C2/C=C(C)CC(C)(C)C2)CC(C)(C)C1
inactive: endpoint: mean survival time, dose: 100.0 mg/kg/injection, schedule: Q04DX003 (ip), vehicle: Klucel (hydroxypropylcellulose) (HPC) 93 % of control | endpoint: mean survival time, dose: 200.0 mg/kg/injection, schedule: Q04DX003 (ip), vehicle: Klucel (hydroxypropylcellulose) (HPC) 91 % of control | endpoint: mean survival time, dose: 400.0 mg/kg/injection, schedule: Q04DX003 (ip), vehicle: Klucel (hydroxypropylcellulose) (HPC) 89 % of control

CCOc1ccccc1C1N(C)CCCN1C
inactive: endpoint: mean survival time, dose: 6.25 mg/kg/injection, schedule: Q01DX009 (ip), vehicle: saline with Tween-80 105 % of control | endpoint: mean survival time, dose: 12.5 mg/kg/injection, schedule: Q01DX009 (ip), vehicle: saline with Tween-80 100 % of control | [16] 110 % of control
